Data: US20230263822A1, “MODULATION OF FACTOR 11 EXPRESSION” (Ionis Pharmaceuticals, Inc., priority 2008, published 2023)
Strand notation (5' to 3'): a small letter for the sugar, then the base; units joined by * are phosphorothioate-linked, units joined directly phosphodiester-linked; [ ] holds rarer units or linkages, { } end groups; capitals alone tell only the bases. e = 2'-O-(2-methoxyethyl) (MOE); [5mC] = 5-methylcytosine; d = 2'-deoxy (DNA)

Key:
Assay type in all cases: in vivo
[1] = tested on: blood coagulation; assay: PT and aPTT assay in cynomolgus monkeys (Example 46); details: for PT ratio (INR) / aPTT ratio relative to PBS group: platelet poor plasma, relative to PBS group; for aPTT: cynomolgus monkeys, 25 mg/kg
Description: (§1) Groups, each consisting of two male and two female monkeys, were injected subcutaneously with 25 mg/kg of ISIS 416850, ISIS 449709, ISIS 445522, ISIS 449710, ISIS 449707, ISIS 449711, ISIS 449708, 416858, and ISIS 445531. Antisense oligonucleotide was administered to the monkeys at 25 mg/kg three times per week for week 1 and 25 mg/kg twice per week for weeks 2 to 8. A control group, consisting of two male and two female monkeys was injected subcutaneously with PBS according to the same dosing regimen. Body weights were taken 14 days and 7 days before the start of treatment and were then measured weekly throughout the treatment period. Blood samples were collected 14 days and 5 days before the start of treatment and subsequently several times during the dosing regimen for PT and aPTT measurements, and measurement of various hematologic factors. On day 55, the monkeys were euthanized by exsanguination while under deep anesthesia, and organs harvested for further analysis.
PT and aPTT were measured using platelet poor plasma (PPP) from […] treated with ISIS oligonucleotides. PT and aPTT values are provided in Tables 148 and 149 and are reported as International Normalized Ratio (INR) values. INR values for PT and aPTT were determined by dividing the PT or aPTT value for each experimental group by the PT or aPTT for the PBS treated group. This ratio was then raised to the power of the International Sensitivity Index (ISI) of the tissue factor used. […] Therefore, antisense reduction of Factor 11 with these ISIS oligonucleotides is useful for inhibiting the formation of a thrombus or clot in response to an abnormal vessel wall, but not in response to tissue injury.

[2] = Body and organ weights of cynomolgus monkeys (Example 46); parameters: Liver weight / Spleen weight / Kidney weight: unit not given here; details: for Kidney weight / Liver weight / Spleen weight: day 55, after euthanasia
Description: as §1
Organ weights were taken after the animals were euthanized on day 55, and livers, kidneys and spleens were harvested.

[3] = Kidney function, BUN, urine protein to creatinine ratio in cynomolgus monkeys (Example 46); details: for Urine protein/creatinine ratio: day 49
Description: as §1
To evaluate the impact of ISIS oligonucleotides on kidney function, urine samples were collected on different days. […] The ratio of urine protein to creatinine in urine samples after antisense oligonucleotide treatment was also calculated for day 49 and results are presented in Table 156. As observed in Tables 155 and 156, there were no significant increases in any of the kidney metabolic markers after antisense oligonucleotide treatment.

[4] = Liver function, ALT, AST, bilirubin in cynomolgus monkeys (Example 46); details: plasma
Description: as §1
Plasma concentrations of alanine transaminase (ALT) and aspartate transaminase (AST) were measured and the results are presented in Tables 152 and 153 expressed in IU/L. Plasma levels of bilirubin were also measured and results are presented in Table 154 expressed in mg/dL. As observed in Tables 152-154, there were no significant increases in any of the liver metabolic markers after antisense oligonucleotide treatment.

[5] = Day −5 (before start of treatment)
[6] = Day −14 (before start of treatment)

For “ISIS 416850: MOE gapmer, nucleobases 1275 to 1318 of SEQ ID NO: 1 (Table 8) (antisense TGCACAGTTTCTGGCAGGCC; MOE gapmer, wing and gap sizes not given here)”, the “PT ratio (INR)” value ([1]; Day 10) was 0.99, the “aPTT ratio relative to PBS group” value ([1]; Day 10) was 0.98 and the “PT ratio (INR)” value ([1]; Day 17) was 1.00. The “aPTT ratio relative to PBS group” value ([1]; Day 17) was 1.01, the “PT ratio (INR)” value ([1]; Day 24) was 0.97 and the “aPTT ratio relative to PBS group” value ([1]; Day 24) was 1.05. For the same substance, the “PT ratio (INR)” value ([1]; Day 31) was 1.00, the “aPTT ratio relative to PBS group” value ([1]; Day 31) was 1.22 and the “PT ratio (INR)” value ([1]; Day 38) was 1.01. The “aPTT ratio relative to PBS group” value ([1]; Day 38) was 1.25, the “PT ratio (INR)” value ([1]; Day 45) was 1.00 and the “aPTT ratio relative to PBS group” value ([1]; Day 45) was 1.34. For the same substance, the “PT ratio (INR)” value ([1]; Day 52) was 1.02, the “aPTT ratio relative to PBS group” value ([1]; Day 52) was 1.32 and the “PT ratio (INR)” value ([1]; Day 55) was 1.07. For the same substance, the “aPTT ratio relative to PBS group” value ([1]; Day 55) was 1.45, the “PT ratio (INR)” value ([1]; Day −5) was 1.00 and the “aPTT ratio relative to PBS group” value ([1]; Day −5) was 0.90. The “PT ratio (INR)” value ([1]; Day −14) was 1.02, the “aPTT ratio relative to PBS group” value ([1]; Day −14) was 0.99 and the “aPTT” value [1] was “significantly prolonged”. It also gave a body weight ([2]; day 1) of 2083 g, a body weight ([2]; day 8) of 2072 g and a body weight ([2]; day 15) of 2147 g. It also gave a body weight ([2]; day 22) of 2139 g, a body weight ([2]; day 29) of 2159 g and a body weight ([2]; day 36) of 2136 g. For the same substance, the body weight ([2]; day 43) was 2186 g, the body weight ([2]; day 50) was 2143 g and the Kidney weight [2] was 0.51. For the same substance, the Liver weight [2] was 2.5, the Spleen weight [2] was 0.17 and the body weight ([2]; day −7) was 2074 g. For the same substance, the body weight ([2]; day −14) was 2061 g, the BUN levels ([3]; Day 31) was 21 mg/dL and the BUN levels ([3]; Day 55) was 26 mg/dL. For the same substance, the BUN levels [3, 5] was 23 mg/dL, the BUN levels [3, 6] was 24 mg/dL and the Urine protein/creatinine ratio [3] was 0.08. For the same substance, the ALT ([4]; Day 31) was 45 IU/L, the AST ([4]; Day 31) was 46 IU/L and the Bilirubin ([4]; Day 31) was 0.26 mg/dL. The ALT ([4]; Day 55) was 55 IU/L, the AST ([4]; Day 55) was 57 IU/L and the Bilirubin ([4]; Day 55) was 0.17 mg/dL. The ALT ([4]; Day −5) was 42 IU/L, the AST ([4]; Day −5) was 45 IU/L and the Bilirubin ([4]; Day −5) was 0.22 mg/dL. It also gave an ALT ([4]; Day −14) of 48 IU/L, an AST ([4]; Day −14) of 62 IU/L and a Bilirubin ([4]; Day −14) of 0.26 mg/dL.

For “ISIS 449709: 3-8-3, 4-8-4, 2-10-2, 3-10-3 or 4-10-4 MOE microwalk gapmer (Table 46) (antisense eG*e[5mC]*eA*e[5mC]*dA*dG*dT*dT*dT*d[5mC]*dT*dG*dG*d[5mC]*eA*eG*eG*e[5mC])”, the “PT ratio (INR)” value ([1]; Day 10) was 0.95, the “aPTT ratio relative to PBS group” value ([1]; Day 10) was 0.99 and the “PT ratio (INR)” value ([1]; Day 17) was 0.95. The “aPTT ratio relative to PBS group” value ([1]; Day 17) was 1.03, the “PT ratio (INR)” value ([1]; Day 24) was 0.95 and the “aPTT ratio relative to PBS group” value ([1]; Day 24) was 1.05. For the same substance, the “PT ratio (INR)” value ([1]; Day 31) was 0.95, the “aPTT ratio relative to PBS group” value ([1]; Day 31) was 1.08 and the “PT ratio (INR)” value ([1]; Day 38) was 0.97. For the same substance, the “aPTT ratio relative to PBS group” value ([1]; Day 38) was 1.08, the “PT ratio (INR)” value ([1]; Day 45) was 0.97 and the “aPTT ratio relative to PBS group” value ([1]; Day 45) was 1.15. The “PT ratio (INR)” value ([1]; Day 52) was 0.99, the “aPTT ratio relative to PBS group” value ([1]; Day 52) was 1.09 and the “PT ratio (INR)” value ([1]; Day 55) was 1.03. For the same substance, the “aPTT ratio relative to PBS group” value ([1]; Day 55) was 1.17, the “PT ratio (INR)” value ([1]; Day −5) was 0.96 and the “aPTT ratio relative to PBS group” value ([1]; Day −5) was 0.91. The “PT ratio (INR)” value ([1]; Day −14) was 1.00, the “aPTT ratio relative to PBS group” value ([1]; Day −14) was 0.99 and the body weight ([2]; day 1) was 2112 g. It also gave a body weight ([2]; day 8) of 2075 g, a body weight ([2]; day 15) of 2085 g and a body weight ([2]; day 22) of 2117 g. The body weight ([2]; day 29) was 2068 g, the body weight ([2]; day 36) was 2064 g and the body weight ([2]; day 43) was 2106 g. It also gave a body weight ([2]; day 50) of 2147 g, a Kidney weight [2] of 0.57 and a Liver weight [2] of 2.6. For the same substance, the Spleen weight [2] was 0.21, the body weight ([2]; day −7) was 2093 g and the body weight ([2]; day −14) was 2044 g. For the same substance, the BUN levels ([3]; Day 31) was 20 mg/dL, the BUN levels ([3]; Day 55) was 28 mg/dL and the BUN levels [3, 5] was 21 mg/dL. For the same substance, the BUN levels [3, 6] was 22 mg/dL, the Urine protein/creatinine ratio [3] was 0.05 and the ALT ([4]; Day 31) was 65 IU/L. It also gave an AST ([4]; Day 31) of 45 IU/L, a Bilirubin ([4]; Day 31) of 0.15 mg/dL and an ALT ([4]; Day 55) of 102 IU/L. For the same substance, the AST ([4]; Day 55) was 71 IU/L, the Bilirubin ([4]; Day 55) was 0.18 mg/dL and the ALT ([4]; Day −5) was 77 IU/L. The AST ([4]; Day −5) was 51 IU/L, the Bilirubin ([4]; Day −5) was 0.19 mg/dL and the ALT ([4]; Day −14) was 73 IU/L. The AST ([4]; Day −14) was 62 IU/L and the Bilirubin ([4]; Day −14) was 0.24 mg/dL.

For “ISIS 445522: 5-8-5 or 6-8-6 MOE microwalk gapmer (Table 44) (antisense eG*e[5mC]*eA*e[5mC]*eA*dG*dT*dT*dT*d[5mC]*dT*dG*dG*e[5mC]*eA*eG*eG*e[5mC])”, the “PT ratio (INR)” value ([1]; Day 10) was 0.95, the “aPTT ratio relative to PBS group” value ([1]; Day 10) was 1.06 and the “PT ratio (INR)” value ([1]; Day 17) was 0.96. For the same substance, the “aPTT ratio relative to PBS group” value ([1]; Day 17) was 1.10, the “PT ratio (INR)” value ([1]; Day 24) was 0.94 and the “aPTT ratio relative to PBS group” value ([1]; Day 24) was 1.14. The “PT ratio (INR)” value ([1]; Day 31) was 0.96, the “aPTT ratio relative to PBS group” value ([1]; Day 31) was 1.25 and the “PT ratio (INR)” value ([1]; Day 38) was 0.97. For the same substance, the “aPTT ratio relative to PBS group” value ([1]; Day 38) was 1.32, the “PT ratio (INR)” value ([1]; Day 45) was 0.96 and the “aPTT ratio relative to PBS group” value ([1]; Day 45) was 1.39. The “PT ratio (INR)” value ([1]; Day 52) was 0.98, the “aPTT ratio relative to PBS group” value ([1]; Day 52) was 1.39 and the “PT ratio (INR)” value ([1]; Day 55) was 1.01. The “aPTT ratio relative to PBS group” value ([1]; Day 55) was 1.42, the “PT ratio (INR)” value ([1]; Day −5) was 0.94 and the “aPTT ratio relative to PBS group” value ([1]; Day −5) was 0.91. For the same substance, the “PT ratio (INR)” value ([1]; Day −14) was 1.00, the “aPTT ratio relative to PBS group” value ([1]; Day −14) was 0.96 and the “aPTT” value [1] was “significantly prolonged”. The body weight ([2]; day 1) was 2047 g, the body weight ([2]; day 8) was 2094 g and the body weight ([2]; day 15) was 2092 g. For the same substance, the body weight ([2]; day 22) was 2114 g, the body weight ([2]; day 29) was 2125 g and the body weight ([2]; day 36) was 2121 g. The body weight ([2]; day 43) was 2142 g, the body weight ([2]; day 50) was 2127 g and the Kidney weight [2] was 0.55. For the same substance, the Liver weight [2] was 2.6, the Spleen weight [2] was 0.23 and the body weight ([2]; day −7) was 2042 g. It also gave a body weight ([2]; day −14) of 2050 g, a BUN levels ([3]; Day 31) of 22 mg/dL and a BUN levels ([3]; Day 55) of 22 mg/dL. For the same substance, the BUN levels [3, 5] was 22 mg/dL, the BUN levels [3, 6] was 23 mg/dL and the Urine protein/creatinine ratio [3] was 0.01. The ALT ([4]; Day 31) was 40 IU/L, the AST ([4]; Day 31) was 46 IU/L and the Bilirubin ([4]; Day 31) was 0.14 mg/dL. It also gave an ALT ([4]; Day 55) of 60 IU/L, an AST ([4]; Day 55) of 79 IU/L and a Bilirubin ([4]; Day 55) of 0.18 mg/dL. For the same substance, the ALT ([4]; Day −5) was 45 IU/L, the AST ([4]; Day −5) was 47 IU/L and the Bilirubin ([4]; Day −5) was 0.20 mg/dL. For the same substance, the ALT ([4]; Day −14) was 43 IU/L, the AST ([4]; Day −14) was 62 IU/L and the Bilirubin ([4]; Day −14) was 0.24 mg/dL.
